Experimental data: patent publication US8372799B2, “Reverse protein” (Apeptico Forschung und Entwicklung GmbH, priority 2007, dated 2013)
Where a SMILES comes first, the peptide text is derived from it. Bridges are numbered along the chain shown (N, C = ends).

Molecular target: T1, epithelial sodium channels (Homo sapiens, UniProt P37088+P51168+P51170)
T1 construct: endogenous in cells; host or cells: A549 human lung epithelial cells (ATCC CCL-185)
T1 sequence (P37088 1-669): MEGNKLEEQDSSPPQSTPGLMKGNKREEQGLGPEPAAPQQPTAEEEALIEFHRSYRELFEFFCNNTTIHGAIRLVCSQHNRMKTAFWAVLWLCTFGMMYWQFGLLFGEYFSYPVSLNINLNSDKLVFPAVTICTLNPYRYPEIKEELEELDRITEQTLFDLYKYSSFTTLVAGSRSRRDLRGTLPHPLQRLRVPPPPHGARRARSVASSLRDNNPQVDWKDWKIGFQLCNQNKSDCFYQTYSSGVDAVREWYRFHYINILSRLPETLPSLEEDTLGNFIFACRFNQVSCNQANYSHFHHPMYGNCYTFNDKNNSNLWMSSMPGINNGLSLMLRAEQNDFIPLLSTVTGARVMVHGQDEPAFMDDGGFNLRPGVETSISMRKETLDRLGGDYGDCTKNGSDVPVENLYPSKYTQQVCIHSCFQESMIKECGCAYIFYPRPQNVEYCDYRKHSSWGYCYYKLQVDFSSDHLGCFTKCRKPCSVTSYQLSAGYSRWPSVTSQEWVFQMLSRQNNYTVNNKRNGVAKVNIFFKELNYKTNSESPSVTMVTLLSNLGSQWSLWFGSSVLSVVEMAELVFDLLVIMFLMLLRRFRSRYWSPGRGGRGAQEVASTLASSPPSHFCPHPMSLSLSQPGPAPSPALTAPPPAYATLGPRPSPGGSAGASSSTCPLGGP
T1 sequence (P51168 1-640): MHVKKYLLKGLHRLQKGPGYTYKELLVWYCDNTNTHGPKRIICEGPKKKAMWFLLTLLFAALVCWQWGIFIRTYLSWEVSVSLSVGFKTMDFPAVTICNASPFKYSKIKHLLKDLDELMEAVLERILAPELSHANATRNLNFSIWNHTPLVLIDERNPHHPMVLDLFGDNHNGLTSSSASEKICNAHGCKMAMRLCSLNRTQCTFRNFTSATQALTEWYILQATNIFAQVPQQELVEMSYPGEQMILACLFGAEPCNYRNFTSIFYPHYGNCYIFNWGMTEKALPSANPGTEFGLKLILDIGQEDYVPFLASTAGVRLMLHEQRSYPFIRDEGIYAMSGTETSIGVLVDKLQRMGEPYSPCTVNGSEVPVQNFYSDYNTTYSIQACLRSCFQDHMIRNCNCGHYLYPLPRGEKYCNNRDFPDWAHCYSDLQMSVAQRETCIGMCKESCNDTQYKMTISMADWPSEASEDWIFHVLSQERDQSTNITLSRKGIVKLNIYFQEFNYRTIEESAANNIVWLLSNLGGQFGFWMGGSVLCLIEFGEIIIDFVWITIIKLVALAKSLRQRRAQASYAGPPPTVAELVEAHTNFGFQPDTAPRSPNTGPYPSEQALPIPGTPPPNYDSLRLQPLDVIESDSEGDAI
T1 sequence (P51170 1-649): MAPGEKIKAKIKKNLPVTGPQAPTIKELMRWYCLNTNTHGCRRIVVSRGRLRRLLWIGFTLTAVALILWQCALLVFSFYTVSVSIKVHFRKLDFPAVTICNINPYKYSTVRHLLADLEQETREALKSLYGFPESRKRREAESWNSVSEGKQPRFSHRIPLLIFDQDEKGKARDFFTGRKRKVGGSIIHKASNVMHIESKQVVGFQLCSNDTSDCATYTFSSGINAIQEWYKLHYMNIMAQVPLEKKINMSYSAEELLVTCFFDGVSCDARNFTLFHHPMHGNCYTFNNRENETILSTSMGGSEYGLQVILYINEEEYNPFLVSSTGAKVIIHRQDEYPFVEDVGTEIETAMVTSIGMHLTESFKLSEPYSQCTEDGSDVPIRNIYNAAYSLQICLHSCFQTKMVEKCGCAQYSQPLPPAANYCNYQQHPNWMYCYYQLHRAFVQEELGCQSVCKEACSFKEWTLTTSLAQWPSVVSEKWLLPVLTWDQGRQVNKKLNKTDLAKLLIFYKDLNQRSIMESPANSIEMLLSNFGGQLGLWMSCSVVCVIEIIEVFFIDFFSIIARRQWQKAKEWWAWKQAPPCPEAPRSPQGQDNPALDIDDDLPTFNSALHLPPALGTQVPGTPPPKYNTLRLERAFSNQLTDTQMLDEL
Experiment: Patch-clamp activation of sodium ion channels in A549 cells
Assay type: cell-based
Conditions: whole cell / cell-attached, amiloride-sensitive sodium current
Excerpt: Furthermore, a method common in laboratories is to detect the activation of ion channels by means of patch-clamp experiments, and this is described, for example, in Clunes M. T. et al, J Physiol Volume 557, No. 3, 809-819 (Jun. 15, 2004). For patch-clamp examinations of ion channels, a glass cannula is stretched thin and filled with a neutral buffer solution. The glass cannula (patch-clamp pipette) is carefully pressed onto an intact epithelial cell. A piece of membrane is located below the pipette. An electrical resistance is thereby produced between the interior of the pipette and the external solution. An electrode attached to a sensitive amplifier dips into the pipette solution.
The electrophysiological experiments were performed on human A549 cells (ATTC No. CCL-185). A549 cells are human lung epithelial cells which are involved in the diffusion of water and electrolytes in the lungs.
The cells were suspended in DMEM-F-12 medium with 1% penicillin-streptomycin and 10% fetal calf serum, transferred into plastic cell culture vessels and cultivated in the incubator with 95% air and 5% CO2 at 37° C. The medium was changed 2 to 3 times per week. The cells double within approx. 22 hours and a cell concentration of more than 7×10^4 cells per cm^2 was not exceeded.
Macroscopic currents and single-channel currents were discharged from A549 cells in the “whole cell” and “cell-attached” configuration of the “patch-clamp” technique (Hamill et al, Pflugers Arch. 1981, 391(2):85-100, 1981). For the current dissipations in the “whole cell” configuration, the following bath and electrode solutions were used:
Bath solution: 135 mM sodium methane sulfonate, 10 mM NaCl, 2.7 mM KCl, 1.8 mM CaCl2, 2 mM MgCl2, 5.5 mM glucose, and 10 mM HEPES, pH 7.4. […]
The cover slips with the cells cultivated thereon were transferred into a test bath with a capacity of 1 ml, fixed on the microscope table (Axiovert 100, 400-fold magnification), and the cells were superfused with the above-described bath solution. […] In the “cell-attached” configuration, the current can be measured through individual ion channels beneath the electrode tip. In the “whole cell” configuration, the membrane was penetrated beneath the electrode tip so that the current flowing through all ion channels of the cell could be measured. […] Upon obtaining a Gigaohm seal, a defined membrane retaining potential was applied via a pre-amplifier (CV-4 Headstage, Axon Instruments) and an amplifier (Axopatch 1D, Axon Instr.) and the current thereby flowing through the ion channels was measured.
The pulse protocol consisted of a hyperpolarization to −100 mV for 1 s at an interval of 5 s. […] The current dissipations thus obtained were stored and analyzed by means of the program PCLAMP 6.0. […]

SMILES | activation of the sodium ion channels (patch clamp)
C[C@@H]1NC(=O)CNC(=O)[C@H](CCC(=O)O)NC(=O)[C@@H]2CCCN2C(=O)[C@H]([C@@H](C)O)NC(=O)[C@H](CCC(=O)O)NC(=O)[C@H](CCCNC(=N)N)NC(=O)[C@H](CCC(N)=O)NC(=O)[C@@H](NC(=O)[C@@H]2CCCN2C(=O)[C@H](CO)NC(=O)[C@@H](N)CCCCN)CSSC[C@@H](C(=O)N2CCC[C@H]2C(=O)N[C@@H](CO)C(=O)O)NC(=O)CNC(=O)CNC(=O)[C@H](CCCCN)NC(=O)[C@H](C)NC(=O)[C@H](CCC(=O)O)NC1=O [SEQ ID NO:2] (H-KSPCQRETPEGAEAKGGCPS-OH; disulfide 4-18) | activation of the sodium ion channels
CC[C@H](C)[C@H](NC(=O)[C@H](C)N)C(=O)N[C@@H](CCCCN)C(=O)N[C@@H](CO)C(=O)N1CCC[C@H]1C(=O)N[C@H]1CSSC[C@@H](C(=O)N2CCC[C@H]2C(=O)N[C@@H](CO)C(=O)N[C@H](C(=O)N[C@@H](Cc2c[nH]cn2)C(=O)N[C@H](C(=O)O)C(C)C)[C@@H](C)O)NC(=O)CNC(=O)CNC(=O)[C@H](CCCCN)NC(=O)[C@H](C)NC(=O)[C@H](CCC(=O)O)NC(=O)[C@H](C)NC(=O)CNC(=O)[C@H](CCC(=O)O)NC(=O)[C@@H]2CCCN2C(=O)[C@H]([C@@H](C)O)NC(=O)[C@H](CCC(=O)O)NC(=O)[C@H](CCCNC(=N)N)NC(=O)[C@H](CCC(N)=O)NC1=O [SEQ ID NO:1] (H-AIKSPCQRETPEGAEAKGGCPSTHV-OH; disulfide 6-20) | activation of the sodium ion channels
C[C@@H]1NC(=O)CNC(=O)[C@H](CCC(=O)O)NC(=O)[C@@H]2CCCN2C(=O)[C@H]([C@@H](C)O)NC(=O)[C@H](CCC(=O)O)NC(=O)[C@H](CCCNC(=N)N)NC(=O)[C@H](CCC(N)=O)NC(=O)[C@@H](N)CSSC[C@@H](C(=O)O)NC(=O)CNC(=O)CNC(=O)[C@H](CCCCN)NC(=O)[C@H](C)NC(=O)[C@H](CCC(=O)O)NC1=O [SEQ ID NO:3, (NH2)Cys-Gln-Arg-Glu-Thr-Pro-Glu-Gly-Ala-Glu-Ala-Lys-Gly-Gly-Cys(COOH)] (H-CQRETPEGAEAKGGC-OH; disulfide 1-15) | activation of the sodium ion channels
